Data taken from US11918581B2, “Combination therapy comprising JAK pathway inhibitor and rock inhibitor” (Incyte Corporation, priority 2021, dated 2024).
“Also recorded” adds a separate entry of the source. Where two headings read alike, the source gives them in different places.

Assays:
GVHD = details: 60 mg/kg per day or 120 mg/kg per day; prophylactic and therapeutic dosing; cited from earlier work
[1] = tested on: sclerodermatous chronic GVHD; test: Example 1: murine model of sclerodermatous chronic GVHD, itacitinib and belumosudil; type: in vivo, C57Bl/6 mice; details: PO d21-56; itacitinib 120 mg/kg BID, belumosudil 150 mg/kg QD; FIG. 1
Description: The effects of therapeutic dosing of a selective JAK1 inhibitor (itacitinib), a ROCK2 inhibitor (belumosudil), and a combination the selective JAK1 inhibitor and ROCK2 inhibitor (itacitinib+belumosudil) combination were tested in a murine model of sclerodermatous chronic GVHD. Sclerodermatous chronic GVHD was induced in C57Bl/6 mice using a single acute dose of 8.5 Gy of total body irradiation on Day −1. On Day 0, recipient mice were given an intravenous injection of a combination of splenocytes and bone marrow cells from donor LP/J mice. Starting at day 21, animals were dosed with vehicle, itacitinib, belumosudil, or the combination of both itacitinib and belumosudil (P.O., B.I.D, see Table 2). All animals were monitored on a daily basis to record weight change, survival and GVHD score (see Table 3). On days 33, 36, 39, 42 and 45 all animals were photographed under isoflurane anesthesia to assess disease severity. [table] [table]

[2] = target: human JAK1 (a.a. 837-1142) (Homo sapiens, UniProt P23458); test: In vitro JAK kinase assay (HTRF), JAK1; type: biochemical; details: 1 mM ATP
Description: (§1) The catalytic activity of JAK1, JAK2, or JAK3 was assayed by measuring the phosphorylation of a biotinylated peptide. The phosphorylated peptide was detected by homogenous time resolved fluorescence (HTRF). […] Reactions are carried out at room temperature for 1 hour and then stopped with 20 μL 45 mM EDTA, 300 nM SA-APC, 6 nM Eu-Py20 in assay buffer (Perkin Elmer, Boston, MA). Binding to the Europium labeled antibody takes place for 40 minutes and HTRF signal was measured on a Fusion plate reader (Perkin Elmer, Boston, MA).

acute GVHD (aGVHD) = details: patients, cited from earlier work
[3] = target: human JAK2 (a.a. 828-1132) (Homo sapiens (Human), UniProt O60674); test: In vitro JAK kinase assay (HTRF), JAK2; type: biochemical; details: JAK2/JAK1 IC50 ratio, 1 mM ATP
Chain of human JAK2 (a.a. 828-1132) (O60674 828-1132): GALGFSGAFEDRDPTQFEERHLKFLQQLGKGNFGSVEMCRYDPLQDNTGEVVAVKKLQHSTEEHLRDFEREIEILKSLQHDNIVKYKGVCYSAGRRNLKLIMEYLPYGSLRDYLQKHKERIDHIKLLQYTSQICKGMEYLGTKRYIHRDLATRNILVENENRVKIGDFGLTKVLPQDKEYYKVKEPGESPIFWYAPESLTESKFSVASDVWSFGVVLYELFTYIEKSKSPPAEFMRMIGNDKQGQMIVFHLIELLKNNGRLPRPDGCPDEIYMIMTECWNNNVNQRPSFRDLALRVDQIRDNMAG
Description: as §1

[4] = tested on: sclerodermatous chronic GVHD; test: Example 2: murine model of sclerodermatous chronic GVHD, ruxolitinib and belumosudil; type: in vivo, C57Bl/6 mice; details: PO d21-56; ruxolitinib 60 mg/kg BID, belumosudil 150 mg/kg QD; FIG. 3
Description: The effects of therapeutic dosing of a JAK1/2 inhibitor (ruxolitinib), a ROCK2 inhibitor (belumosudil), and a combination of the JAK1/2 inhibitor and ROCK2 inhibitor (ruxolitinib+belumosudil) combination were tested in a murine model of sclerodermatous chronic GVHD. Sclerodermatous chronic GVHD was induced in C57Bl/6 mice using a single acute dose of 8.5 Gy of total body irradiation on Day −1. On Day 0, recipient mice were given an intravenous injection of a combination of splenocytes and bone marrow cells from donor LP/J mice. Starting at day 21, animals were dosed with vehicle, ruxolitinib, belumosudil, or the combination of both ruxolitinib and belumosudil (P.O., B.I.D, see Table 4). All animals were monitored on a daily basis to record weight change, survival and GVHD score (see Table 5). On days 33, 36, 39, 42 and 45 all animals were photographed under isoflurane anesthesia to assess disease severity. [table] [table]

chronic GVHD (cGVHD) = details: patients; cited from earlier work
lung cGVHD = details: cited from earlier work

Row | Compound | GVHD score (GVHD) | GVHD score compared to vehicle-treated animals [1] | IC50 [2] | clinical efficacy in acute GVHD (acute GVHD (aGVHD); listed as itacitinib) | JAK2/JAK1 [3] | GVHD score compared to vehicle-treated animals [4] | clinical efficacy in chronic GVHD (chronic GVHD (cGVHD)) | increase in FEV1 (lung cGVHD; 1 patient) | responses (lung cGVHD; 5 pediatric patients (4 evaluable) with lung cGVHD) | patients able to wean steroids completely (lung cGVHD; 5 pediatric patients) | decrease of the steroid requirement (lung cGVHD; final patient) | clinical efficacy in acute GVHD (acute GVHD (aGVHD))
1 | N#CCC1(n2cc(-c3ncnc4[nH]ccc34)cn2)CN(C2CCN(C(=O)c3ccnc(C(F)(F)F)c3F)CC2)C1 [Compound 1, {1-{1-[3-Fluoro-2-(trifluoromethyl)isonico-tinoyl]piperidin-4-yl}-3-[4-(7H-pyrrolo[2,3-d]pyrimidin-4-yl)-1H-pyrazol-1-yl]azetidin-3-yl}acetonitrile] | improvement in the GVHD score | reduction in GVHD scores | < 10 nM | clinical efficacy; also recorded: significant clinical activity | >10 |  |  |  |  |  |  | 
2 | CC(C)NC(=O)COc1cccc(-c2nc(Nc3ccc4[nH]ncc4c3)c3ccccc3n2)c1 [belumosudil, 2-(3-(4-((1H-indazol-5-yl)amino)quinazolin-2-yl)phenoxy)-N-isopropylacetamide, reference compound] |  | reduction in GVHD scores |  |  |  | no benefit |  |  |  |  |  | 
3 | N#CC[C@H](C1CCCC1)n1cc(-c2ncnc3[nH]ccc23)cn1 [ruxolitinib, (R)-3-(4-(7H-pyrrolo[2,3-d]pyrimidin-4-yl)-1H-pyrazol-1-yl)-3-cyclopentylpropanenitrile] |  |  |  |  |  | numerical reduction in GVHD scores | clinical efficacy | 9% | 2 | Four out of five | > 50% | clinical efficacy
